In general, MIC refers to the smallest concentration in the dilution series that meets the test's criterion for growth inhibition.

These results are taken from ChEMBL document CHEMBL1151845, “Terpenoids from Toona ciliata” (2009).

In brackets after ≈: the same amount, converted by molar mass.

One assay relates to Trichophyton rubrum. The assay can be described thus: Antifungal activity against Trichophyton rubrum after 48 hrs. It is filed as functional.
Assay [1] concerns Staphylococcus epidermidis. Description: Antibacterial activity against Staphylococcus epidermidis ATCC 12228 after 18 hrs. It counts as functional. Conditions: ATCC 12228, 18 h.

Regarding `C=C[C@@]1(C)CC[C@H]2[C@@](O)(CC[C@@H]3[C@]2(C)CCC[C@]3(C)C(=O)O)C1` [TOONACILIATIN M], inhibition of growth against Trichophyton rubrum (MIC) required 12.5 µg/mL (≈ 39 µM). On the same count and under the same terms, with `C[C@@H]1[C@H](O)[C@@H](C)/C=C/C=C/C=C/C=C/C=C/C=C/C=C/[C@H](O[C@@H]2O[C@H](C)[C@@H](O)[C@H](N)[C@@H]2O)C[C@@H]2O[C@](O)(C[C@@H](O)C[C@@H](O)[C@H](O)CC[C@@H](O)C[C@@H](O)CC(=O)O[C@H]1C)C[C@H](O)[C@H]2C(=O)O` [AMPHOTERICIN B] the figure was 1.56 µg/mL (≈ 1.69 µM).

The molecule `CC1COc2c(N3CCN(C)CC3)c(F)cc3c(=O)c(C(=O)O)cn1c23` (stereo not drawn) [OFLOXACIN] displayed an MIC in assay [1] of 0.39 µg/mL (≈ 1.08 µM).
